In article PMC9313475, “Green Tea Catechins, (−)‐Catechin Gallate, and (−)‐Gallocatechin Gallate are Potent Inhibitors of ABA‐Induced Stomatal Closure” (Advanced Science, 2022):

Assays:
KAT2 [1] = biological target: T1, KAT2 (Arabidopsis thaliana, UniProt Q38849); assay: two-electrode voltage clamp in Xenopus oocytes expressing the channel, […]; type: cell-based
GORK = biological target: T2, GORK (Arabidopsis thaliana, UniProt Q94A76); assay: as above; type: cell-based
T2 sequence (Q94A76 1-820): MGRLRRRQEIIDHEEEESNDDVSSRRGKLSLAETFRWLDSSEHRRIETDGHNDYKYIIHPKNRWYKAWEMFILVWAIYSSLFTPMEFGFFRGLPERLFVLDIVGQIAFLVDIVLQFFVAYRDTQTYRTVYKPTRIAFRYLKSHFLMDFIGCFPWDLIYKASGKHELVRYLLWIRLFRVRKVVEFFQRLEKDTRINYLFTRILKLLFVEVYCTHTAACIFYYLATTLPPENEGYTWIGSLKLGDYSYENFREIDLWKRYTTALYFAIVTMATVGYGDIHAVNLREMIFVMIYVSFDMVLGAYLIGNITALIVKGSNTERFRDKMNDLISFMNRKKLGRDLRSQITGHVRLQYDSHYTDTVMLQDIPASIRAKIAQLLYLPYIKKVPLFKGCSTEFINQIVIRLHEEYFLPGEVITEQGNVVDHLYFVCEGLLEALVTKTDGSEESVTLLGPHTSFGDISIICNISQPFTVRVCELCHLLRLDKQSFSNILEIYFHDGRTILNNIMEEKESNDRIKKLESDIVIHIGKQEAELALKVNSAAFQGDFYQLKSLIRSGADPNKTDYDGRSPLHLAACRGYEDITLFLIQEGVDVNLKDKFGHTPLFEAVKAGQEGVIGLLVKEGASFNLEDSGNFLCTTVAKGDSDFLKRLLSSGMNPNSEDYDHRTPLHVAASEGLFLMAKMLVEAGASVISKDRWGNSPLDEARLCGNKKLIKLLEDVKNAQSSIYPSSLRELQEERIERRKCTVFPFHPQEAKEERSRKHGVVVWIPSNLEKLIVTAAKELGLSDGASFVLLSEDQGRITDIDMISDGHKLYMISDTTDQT

KAT1 = KAT1 (Arabidopsis thaliana, UniProt Q39128); assay: as above; type: cell-based
Sequence of KAT1 (Q39128 whole entry): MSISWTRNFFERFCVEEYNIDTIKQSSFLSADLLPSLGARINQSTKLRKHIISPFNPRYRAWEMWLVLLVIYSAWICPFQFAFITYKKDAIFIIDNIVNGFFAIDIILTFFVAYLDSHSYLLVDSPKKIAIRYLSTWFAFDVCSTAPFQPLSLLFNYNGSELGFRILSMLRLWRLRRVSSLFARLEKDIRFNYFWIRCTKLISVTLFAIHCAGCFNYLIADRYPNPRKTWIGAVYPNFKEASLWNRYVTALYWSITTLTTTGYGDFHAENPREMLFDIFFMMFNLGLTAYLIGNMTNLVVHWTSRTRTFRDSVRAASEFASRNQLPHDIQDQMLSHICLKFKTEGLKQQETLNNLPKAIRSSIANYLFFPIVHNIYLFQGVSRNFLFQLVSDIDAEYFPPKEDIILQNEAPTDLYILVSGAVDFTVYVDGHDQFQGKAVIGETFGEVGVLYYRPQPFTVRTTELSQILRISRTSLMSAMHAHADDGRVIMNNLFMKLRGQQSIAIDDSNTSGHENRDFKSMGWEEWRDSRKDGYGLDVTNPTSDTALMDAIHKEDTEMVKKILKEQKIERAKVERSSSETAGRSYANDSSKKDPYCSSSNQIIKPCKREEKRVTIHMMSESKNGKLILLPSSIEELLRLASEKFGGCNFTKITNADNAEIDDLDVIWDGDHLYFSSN

KAT2 [2] = biological target: T1, KAT2; assay: cell-based; settings: read-out: % inhibition at 0.5 mM

T1 sequence (Q38849 whole entry): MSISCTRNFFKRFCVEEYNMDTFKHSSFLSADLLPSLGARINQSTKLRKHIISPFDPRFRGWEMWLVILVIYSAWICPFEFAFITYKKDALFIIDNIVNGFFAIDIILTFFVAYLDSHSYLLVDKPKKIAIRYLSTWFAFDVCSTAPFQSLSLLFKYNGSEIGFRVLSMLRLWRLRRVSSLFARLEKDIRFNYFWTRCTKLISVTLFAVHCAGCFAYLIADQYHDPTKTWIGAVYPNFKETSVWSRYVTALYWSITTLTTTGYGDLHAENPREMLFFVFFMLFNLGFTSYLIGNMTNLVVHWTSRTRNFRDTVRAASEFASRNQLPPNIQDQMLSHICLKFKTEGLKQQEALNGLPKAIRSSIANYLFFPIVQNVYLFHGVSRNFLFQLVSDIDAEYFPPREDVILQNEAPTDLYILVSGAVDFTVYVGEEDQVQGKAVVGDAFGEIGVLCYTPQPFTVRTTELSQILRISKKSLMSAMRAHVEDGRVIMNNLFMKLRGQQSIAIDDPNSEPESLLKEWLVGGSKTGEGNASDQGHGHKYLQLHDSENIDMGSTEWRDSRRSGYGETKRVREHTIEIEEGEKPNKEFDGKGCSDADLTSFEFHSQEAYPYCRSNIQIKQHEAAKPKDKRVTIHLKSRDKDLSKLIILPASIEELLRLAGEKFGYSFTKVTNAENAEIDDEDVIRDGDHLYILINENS

| SMILES | two-electrode voltage clamp in Xenopus oocytes expressing the channel, 500 μM (KAT2 [1]) | two-electrode voltage clamp in Xenopus oocytes expressing the channel, 500 μM (GORK) | two-electrode voltage clamp in Xenopus oocytes expressing the channel, 500 μM (KAT1) | inhibition at 500 µM (KAT2 [2]) [%] |
| --- | --- | --- | --- | --- |
| O=C(O[C@@H]1Cc2c(O)cc(O)cc2O[C@H]1c1ccc(O)c(O)c1)c1cc(O)c(O)c(O)c1 [CG, (−)-catechin gallate] | Both CG and GCG inhibited KAT1 and KAT2 (Figure 3A,B). | GORK was strongly inhibited by CG and GCG, whereas AKT1 and AKT2 were less sensitive to CG and GCG. | Both CG and GCG inhibited KAT1 and KAT2 (Figure 3A,B). | – |
| O=C(O[C@@H]1Cc2c(O)cc(O)cc2O[C@H]1c1cc(O)c(O)c(O)c1)c1cc(O)c(O)c(O)c1 [GCG, (−)-gallocatechin gallate] | Both CG and GCG inhibited KAT1 and KAT2 (Figure 3A,B). | GORK was strongly inhibited by CG and GCG, whereas AKT1 and AKT2 were less sensitive to CG and GCG. | Both CG and GCG inhibited KAT1 and KAT2 (Figure 3A,B). | – |
| CC[N+](CC)(CC)CC [TEA, tetraethylammonium] | – | – | – | 14 |
